The values below come from patent publication US20260184725A1, “CYCLIC 2-AMINOPYRIMIDINE COMPOUND AND PHARMACEUTICAL COMPOSITION AND USE THEREOF” (SHANGHAI INSTITUTE OF ORGANIC CHEMISTRY, CHINESE ACADEMY OF …, priority 2023, published 2026).

In one data set the target is T1, EGFR^WT (Homo sapiens, UniProt P00533).
T1 construct: purchased Eurofins
As to the kind of experiment: ELISA kinase activity inhibition, wild-type EGFR. In kind it is biochemical. The settings on record: ATP 5 μM, read-out: The average IC50 value (nM) for inhibiting the activity of different tyrosine kinases, EGFR^WT. (An ELISA detects its analyte on a solid surface through an enzyme-linked reagent.)

The next data set concerns the target EGFR^L858R/T790M/C797S (Homo sapiens, UniProt P00533, C797S/L858R/T790M). As to the kind of experiment: ELISA kinase activity inhibition, EGFR L858R/T790M/C797S. The note with it: ATP 5 μM, read-out: The average IC50 value (nM) for inhibiting the activity of different tyrosine kinases, EGFR^L858R/T790M/C797S. It is filed as biochemical.
A further data set concerns the target T2, EGFR^19del/T790M/C797S (Homo sapiens, UniProt P00533, T790M/C797S, form not given).
T2 construct: fused on or other part: Probably a GST tag on the cytoplasmic fragment, as in the vendor's product
As to the kind of experiment: ELISA kinase activity inhibition, EGFR 19del/T790M/C797S. It is filed as biochemical. The note with it: ATP 5 μM, read-out: The average IC50 value (nM) for inhibiting the activity of different tyrosine kinases, EGFR^19del/T790M/C797S.

A further data set deals with BaF3 parent cell. The experiment in a line: CCK-8 cell proliferation, BaF3 parent cell. It is filed as cell-based. The settings on record: Mus musculus, BaF3; CCK-8, 72 hours; read-out: Average value of IC50 of inhibition against cells growth, BaF3 parent cell. An excerpt:
(§1) Ba/F3 cells were obtained from Deutsche Sammlung von Mikroorganismen und Zellkulturen GmbH (DSMZ). Ba/F3 cells stably expressing EGFR19del/T790M/C797S or EGFR L858R/T790M/C797S were generated by infecting parental cells with corresponding retroviruses. PC-9-OR was a tumor cell model obtained by simultaneously knocking in T790M and C797S mutations into 19del-activating mutation-dependent PC-9 tumor cells using CRISPR technology. This model, which proliferated dependent on EGFR19del/T790M/C797S resistance mutation, was used to evaluate the inhibitory activity of compounds against EGFR19del/T790M/C797S resistance mutants (Cancer Science. 2022; 113:709-720). All cells used in the study were verified by short tandem repeat (STR) analysis conducted by Genesky.
(§2) Tumor cell viability was assessed using a CCK-8 cell counting kit (A311-01/02, Vazyme, Nanjing, China). Cells were seeded at a density of 3000 cells per well into 96-well plates and cultured overnight. Subsequently, the cells were treated with compounds of different concentrations and incubated for 72 hours. After 72 hours, 10 μL of CCK-8 solution was added to each well. The plates were then returned to the incubator and incubated at 37° C. for 2 hours. The absorbance was measured at 450 nm using a microplate reader. A calibration curve was constructed using data obtained from wells containing known numbers of viable cells.

Data set [1] deals with BaF3-EGFR (19del/T790M/C797S) (Homo sapiens, UniProt P00533, T790M/C797S, cells depend on it, form not given). The experiment in a line: CCK-8 cell proliferation, BaF3-EGFR(19del/T790M/C797S). It is filed as cell-based. The note with it: CCK-8, 72 hours; read-out: Average value of IC50 of inhibition against EGFR-mutant cells growth, BaF3-EGFR (19del/T790M/C797S). The procedure:
(§3) Ba/F3 cells were obtained from Deutsche Sammlung von Mikroorganismen und Zellkulturen GmbH (DSMZ). […] All cells used in the study were verified by short tandem repeat (STR) analysis conducted by Genesky.
as §2

The target of data set [2] is BaF3-EGFR (L858R/T790M/C797S) (Homo sapiens, UniProt P00533, T790M/C797S/L858R, cells depend on it). The experiment in a line: CCK-8 cell proliferation, BaF3-EGFR(L858R/T790M/C797S). It is filed as cell-based. The note with it: CCK-8, 72 hours; read-out: Average value of IC50 of inhibition against EGFR-mutant cells growth, BaF3-EGFR (L858R/T790M/C797S). The protocol:
as §3, §2

Data set [3] relates to PC-9-OR (19del/T790M/C797S). As to the kind of experiment: CCK-8 cell proliferation, PC-9-OR. It is filed as cell-based. The settings on record: PC9-OR; CCK-8, 72 hours; read-out: Average value of IC50 of inhibition against EGFR-mutant cells growth, PC-9-OR (19del/T790M/C797S).
Excerpt: as §1, §2

Data set [4] can be described thus: Pharmacokinetic parameters in rats. It is filed as in vivo. The note with it: male, Sprague-Dawley, plasma, rat. The procedure:
Sprague-Dawley rats (males, 3 per group), weighing 180 g to 220 g, were administered test compounds intravenously and orally at doses of 1 mg/kg and 5 mg/kg, respectively. The compounds were dissolved in a mixed solvent (5% DMSO+10% Solutol+85% PBS) for intravenous injection. 0.5% CMC-Na solution (800 cps to 1200 cps) was used as a suspension agent for oral administration. At designated time points, 0.2 mL of blood samples were collected via the jugular vein and placed into tubes containing K2-EDTA, stored on ice, and then centrifuged. Sampling intervals for the injection group were 0.083, 0.25, 0.5, 1, 2, 4, 8, and 24 hours, while for the oral group, sampling intervals were 0.25, 0.5, 1, 2, 4, 6, 8, and 24 hours. The blood samples were centrifuged at 6800 g for 6 minutes at 2° C. to 8° C. within 1 hour after collection and stored frozen at approximately −80° C. Subsequently, 200 μL of MeOH was used to precipitate 20 μL of plasma samples containing 100 ng/mL IS. The mixture was vortexed for 1 minute and then centrifuged at 18000 g for 7 minutes. 200 μL of the supernatant was transferred to a 96-well plate, and 1 μL of the supernatant sample was injected for LC-MS/MS analysis. Finally, Phoenix WinNonlin7.0 software was used to calculate the pharmacokinetic (PK) parameters.

Each structure is given as a SMILES string.

Chain of BaF3-EGFR (19del/T790M/C797S) (P00533 with tags, fused parts or gaps DEL746-750/T790M/C797S, form open): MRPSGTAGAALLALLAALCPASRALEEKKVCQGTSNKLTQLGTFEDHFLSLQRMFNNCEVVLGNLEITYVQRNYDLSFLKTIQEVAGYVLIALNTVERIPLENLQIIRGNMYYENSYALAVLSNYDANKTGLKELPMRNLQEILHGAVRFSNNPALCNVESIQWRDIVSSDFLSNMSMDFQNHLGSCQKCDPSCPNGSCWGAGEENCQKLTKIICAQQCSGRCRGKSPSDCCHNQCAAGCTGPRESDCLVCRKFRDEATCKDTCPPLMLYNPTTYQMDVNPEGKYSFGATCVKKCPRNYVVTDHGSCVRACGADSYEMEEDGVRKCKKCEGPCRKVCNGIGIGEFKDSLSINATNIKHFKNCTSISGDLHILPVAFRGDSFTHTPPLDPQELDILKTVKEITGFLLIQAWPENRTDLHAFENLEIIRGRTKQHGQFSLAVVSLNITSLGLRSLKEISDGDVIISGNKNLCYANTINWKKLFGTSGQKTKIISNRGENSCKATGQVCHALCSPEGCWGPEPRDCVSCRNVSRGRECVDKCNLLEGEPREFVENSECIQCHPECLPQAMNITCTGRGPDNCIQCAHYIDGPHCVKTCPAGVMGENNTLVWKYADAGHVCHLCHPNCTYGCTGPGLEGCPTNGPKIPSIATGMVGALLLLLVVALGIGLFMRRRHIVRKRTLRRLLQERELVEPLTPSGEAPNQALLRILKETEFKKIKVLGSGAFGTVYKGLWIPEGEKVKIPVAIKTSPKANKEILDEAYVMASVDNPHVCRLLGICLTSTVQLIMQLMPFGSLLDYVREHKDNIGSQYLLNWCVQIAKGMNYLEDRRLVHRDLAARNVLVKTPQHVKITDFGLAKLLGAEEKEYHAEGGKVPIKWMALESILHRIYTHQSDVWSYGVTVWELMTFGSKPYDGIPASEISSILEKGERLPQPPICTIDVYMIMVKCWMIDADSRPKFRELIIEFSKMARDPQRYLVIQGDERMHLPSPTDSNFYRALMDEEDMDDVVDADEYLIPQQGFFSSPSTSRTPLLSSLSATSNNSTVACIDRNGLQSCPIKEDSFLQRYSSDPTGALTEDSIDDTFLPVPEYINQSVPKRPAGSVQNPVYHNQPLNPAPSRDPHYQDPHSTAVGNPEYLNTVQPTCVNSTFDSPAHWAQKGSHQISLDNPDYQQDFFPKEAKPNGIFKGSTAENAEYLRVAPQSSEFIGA
T2 sequence (P00533 with tags, fused parts or gaps DEL746-750/T790M/C797S, form open): as above
Chain of EGFR^L858R/T790M/C797S (P00533 25-1210 T790M/C797S/L858R): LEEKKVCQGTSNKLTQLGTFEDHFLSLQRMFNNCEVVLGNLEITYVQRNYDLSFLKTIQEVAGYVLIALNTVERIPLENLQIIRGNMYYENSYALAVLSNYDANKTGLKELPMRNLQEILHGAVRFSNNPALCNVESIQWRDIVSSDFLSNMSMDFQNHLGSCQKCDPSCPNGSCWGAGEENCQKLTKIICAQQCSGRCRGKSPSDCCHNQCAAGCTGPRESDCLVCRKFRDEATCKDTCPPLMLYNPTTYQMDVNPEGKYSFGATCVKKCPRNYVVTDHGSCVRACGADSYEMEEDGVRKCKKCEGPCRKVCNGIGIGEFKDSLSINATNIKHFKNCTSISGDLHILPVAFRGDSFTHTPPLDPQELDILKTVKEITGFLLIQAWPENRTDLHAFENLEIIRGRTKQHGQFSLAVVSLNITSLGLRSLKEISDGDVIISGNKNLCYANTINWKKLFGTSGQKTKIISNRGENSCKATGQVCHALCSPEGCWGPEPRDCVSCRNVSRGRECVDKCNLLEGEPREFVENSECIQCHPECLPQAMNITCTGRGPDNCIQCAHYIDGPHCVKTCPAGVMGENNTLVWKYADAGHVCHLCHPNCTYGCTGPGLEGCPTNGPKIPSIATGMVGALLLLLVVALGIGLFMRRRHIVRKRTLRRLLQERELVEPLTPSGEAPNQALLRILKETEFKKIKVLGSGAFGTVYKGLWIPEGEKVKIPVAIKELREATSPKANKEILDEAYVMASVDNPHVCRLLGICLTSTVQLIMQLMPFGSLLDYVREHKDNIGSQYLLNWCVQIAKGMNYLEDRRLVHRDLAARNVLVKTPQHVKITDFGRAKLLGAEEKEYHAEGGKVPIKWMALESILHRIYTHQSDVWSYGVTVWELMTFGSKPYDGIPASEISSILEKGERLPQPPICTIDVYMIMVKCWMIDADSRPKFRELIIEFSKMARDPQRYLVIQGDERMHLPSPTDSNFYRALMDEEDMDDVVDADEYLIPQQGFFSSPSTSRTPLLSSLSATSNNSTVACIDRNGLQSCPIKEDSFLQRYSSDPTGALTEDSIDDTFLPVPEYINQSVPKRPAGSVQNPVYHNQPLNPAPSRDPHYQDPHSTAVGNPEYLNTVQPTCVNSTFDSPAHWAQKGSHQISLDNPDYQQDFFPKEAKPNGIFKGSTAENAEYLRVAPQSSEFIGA
T1 sequence (P00533 25-1210): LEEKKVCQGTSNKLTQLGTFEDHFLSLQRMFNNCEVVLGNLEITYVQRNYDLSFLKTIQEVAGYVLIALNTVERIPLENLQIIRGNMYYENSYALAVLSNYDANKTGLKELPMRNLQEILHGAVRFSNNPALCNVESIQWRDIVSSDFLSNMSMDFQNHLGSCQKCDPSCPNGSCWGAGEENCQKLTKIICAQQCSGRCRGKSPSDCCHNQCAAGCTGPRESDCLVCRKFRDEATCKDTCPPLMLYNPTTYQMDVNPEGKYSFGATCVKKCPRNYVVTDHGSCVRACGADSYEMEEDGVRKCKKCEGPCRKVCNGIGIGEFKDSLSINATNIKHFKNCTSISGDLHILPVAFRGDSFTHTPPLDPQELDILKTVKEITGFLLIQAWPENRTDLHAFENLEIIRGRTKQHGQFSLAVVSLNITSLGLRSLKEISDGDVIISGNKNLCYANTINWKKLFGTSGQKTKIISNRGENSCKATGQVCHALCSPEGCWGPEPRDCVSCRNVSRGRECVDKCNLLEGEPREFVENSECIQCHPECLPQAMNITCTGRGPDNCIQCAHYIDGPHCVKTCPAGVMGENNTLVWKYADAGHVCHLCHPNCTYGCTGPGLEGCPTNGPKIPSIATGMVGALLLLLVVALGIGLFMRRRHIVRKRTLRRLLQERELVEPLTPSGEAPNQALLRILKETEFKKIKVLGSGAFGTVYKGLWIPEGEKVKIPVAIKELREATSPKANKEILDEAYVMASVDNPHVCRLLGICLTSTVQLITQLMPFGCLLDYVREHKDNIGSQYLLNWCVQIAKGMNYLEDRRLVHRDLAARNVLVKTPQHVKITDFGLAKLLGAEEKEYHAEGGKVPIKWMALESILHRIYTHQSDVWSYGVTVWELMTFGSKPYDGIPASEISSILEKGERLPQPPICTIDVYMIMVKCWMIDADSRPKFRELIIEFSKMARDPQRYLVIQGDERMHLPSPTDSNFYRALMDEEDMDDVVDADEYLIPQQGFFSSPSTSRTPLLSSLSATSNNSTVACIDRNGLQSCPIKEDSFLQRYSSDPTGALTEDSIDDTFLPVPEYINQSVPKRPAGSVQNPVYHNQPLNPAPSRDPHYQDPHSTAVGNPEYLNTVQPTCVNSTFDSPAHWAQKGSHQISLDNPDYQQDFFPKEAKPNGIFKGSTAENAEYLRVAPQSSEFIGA

A word on the Cmax: it is the highest concentration seen after dosing. The term clearance denotes the volume of plasma or blood freed of the substance per unit of time. High values mean a high capacity for elimination, low ones a low capacity for elimination. Usually half-life stands for the time needed for the level to fall by half in the phase considered. Read a high half-life as slow loss. Broadly, the bioavailability is dose-corrected exposure relative to a reference, in per cent. Take `CCS(=O)(=O)n1cc2c3ccc(cc31)OCCCn1cc(cn1)-c1cc(c(OC)cc1N1CCOCC1)Nc1nccc-2n1` [HC9591, (Z)-1^1-Ethylsulfonyl-4^6-methoxy-4^4-morpholin-1^1H,5^1H-9-oxa-3-aza-1 (3,6)-indole-2(4,2)-pyrimidine-5(4,1) pyrazole-4(1,3)-benzenacyclononaphane]: the IC50 on EGFR^WT was 632 nM; at EGFR^L858R/T790M/C797S it was 2 nM; at EGFR^19del/T790M/C797S, 1.7 nM; in the data set with BaF3 parent cell it was 1.81 µM; in data set [3] it was 0.269 µM. The values for the GI50 in data set [1] and in data set [2] were 0.189 µM and 0.301 µM, respectively. In addition, the Cmax is 1.57 ± 0.22 µg/mL in data set [4] (IV 1 mg/kg) and 0.33 ± 0.0565 µg/mL in data set [4] (PO 5 mg/kg). Besides, the clearance in data set [4] (IV 1 mg/kg) stood at 0.552 ± 0.126 L/h/kg. The half-life in data set [4] (IV 1 mg/kg) is 7.1 ± 0.95 h; in data set [4] (PO 5 mg/kg), 8.13 ± 0.08 h. Also, in data set [4] (PO 5 mg/kg, read-out: F (oral bioavailability)), the bioavailability was found to be 39.6 ± 9%.
